Results: US4269857A, “Control of plant-virus diseases” (Kureha Kagaku Kogyo Kabushiki Kaisha, priority 1978, dated 1981)
Like-named read-outs stand apart in the source and are kept apart here.

Experiments:
[1] = test system: tobacco mosaic virus (TMV); assay: Inhibition of local lesion formation by TMV, half-leaf method on kidney bean primary leaves; assay type: in vivo, tobacco mosaic virus on kidney bean plants (variety: Otebo); details: for inhibition at 500 ppm: Tobacco mosaic virus, read-out: Evaluation (rate of inhibition of lesion spot formation)
Description: (§1) In the experiments one of the compounds of the present invention was formulated as in the above-mentioned Example 3 and after diluting the formulated composition with water to a predetermined concentration.
In this test, the inhibiting action of the compound of the present invention against the formation of local lesion due to the infection of tobacco mosaic virus (TMV) was examined by the half-leaf method using primary leaves of kedny been plants (variety: Otebo). TMV was inoculated on the primary leaf of kedney been plant, and just after the inoculation, the diluted liquid of the compound was painted on the half surface of the leaf and water was painted on the other half surface of the leaf. The concentration of the compounds of the present invention in the liquid was 500 ppm, and the inoculum was adjusted to form about 50 topical lesion spots on the half surface of the leaf painted with water (control). Ten leaves were usually used for the evaluation of one compound, and the rate of inhibition of lesion spot formation was derived from the following formula: [formula]
The thus obtained rates of inhibition were evaluated according to the following criteria: […]

[2] = test system: cucumber mosaic virus (CMV); assay: Inhibition of CMV disease transmitted by aphids (Myzus persicae) on cucumber plants; assay type: in vivo; details: CMV via wingless aphids, 500 ppm, sprayed before aphid transmigration, one week after spray
Description: as §1, with “The followings are the test results of the compounds of the present invention in the plant virus disease-controlling experiments. In” for “In”
The compounds evaluated as A in Test results 2 were further tested as follows:
The cucumber plants growing for two weeks after sowing in greenhouse were sprayed by each liquid containing each compound at a concentration of 500 ppm (variety of cucumber: Kinseisanto). After drying at room temperature about 3 hours, wingless aphids (Myzus persicae, Sulzer) which had been put on the suffered cucumber plant from CMV and shipped the plant sap containing CMV were transmigrated to the sprayed cucumber plants at a rate of 5 insects per plant. On the next day of the transmigration, the insects were killed by spraying dichlorvos in the plants. After one week of the spray of the compound of the present invention, the effectiveness of the compound in inhibiting the occurrence of the sign of disease due to the virus was investigated as the number of plants without the sign of disease per number of plants sprayed. As the control, water was sprayed.

[3] = TMV, kidney bean primary leaves, 500 ppm, painted just after inoculation, half-leaf method

SMILES | inhibition at 500 ppm [1, 3] [%] | Evaluation (number of plants without the sign of disease per number of plants sprayed) [2] | Evaluation (rate of inhibition of lesion spot formation) [1, 3] | other results
CCCCNC[C@H](O)[C@@H](O)[C@H](O)[C@H](O)CO [Compound 3] |  |  |  | inhibition at 500 ppm [1]: 70 to 90%
CCCCCNC[C@H](O)[C@@H](O)[C@H](O)[C@H](O)CO [Compound 5] | 70 to 90 |  |  | 
CCCCCCNC[C@H](O)[C@@H](O)[C@H](O)[C@H](O)CO [Compound 7] | 70 to 90 |  |  | 
CCCCCCCCNC[C@H](O)[C@@H](O)[C@H](O)[C@H](O)CO [Compound 8] | 70 to 90 |  |  | 
CCCCCCCCCCNC[C@H](O)[C@@H](O)[C@H](O)[C@H](O)CO [Compound 10] | 90 to 100 | B (7/10-5/10) |  | 
CCCCCCCCCCCCNC[C@H](O)[C@@H](O)[C@H](O)[C@H](O)CO [Compound 12] | 90 to 100 | A (10/10-8/10) |  | 
CCCCCCCCCCCCNC[C@H](O)[C@@H](O)[C@H](O)[C@H](O)CO [Compound 13] |  | A (10/10-8/10) | A (100-90) | 
CCCCCCCCCCCCNC[C@H](O)[C@@H](O)[C@H](O)[C@H](O)CO [Compound 14] |  | B (7/10-5/10) | A (100-90) | 
CCCCCCCCCCCCNC[C@H](O)[C@@H](O)[C@H](O)[C@H](O)CO [Compound 15] |  | A (10/10-8/10) | A (100-90) | 
CCCCCCCCCCCCNC[C@H](O)[C@@H](O)[C@H](O)[C@H](O)CO [Compound 16] |  | A (10/10-8/10) | A (100-90) | 
CCCCCCCCCCCCNC[C@H](O)[C@@H](O)[C@H](O)[C@H](O)CO [Compound 17] |  |  | B (90-70) | 
CCCCCCCCCCCCCCNC[C@H](O)[C@@H](O)[C@H](O)[C@H](O)CO [Compound 18] | 70 to 90 |  |  | 
CCCCCCCCCCCCCCCNC[C@H](O)[C@@H](O)[C@H](O)[C@H](O)CO [Compound 20] | 70 to 90 |  |  | 
CCCCCCCCCCCCCCCCNC[C@H](O)[C@@H](O)[C@H](O)[C@H](O)CO [Compound 23] | 70 to 90 |  |  | 
CCCCCCCCCCCCCCCCCCNC[C@H](O)[C@@H](O)[C@H](O)[C@H](O)CO [Compound 24, 1-deoxy-1-n-octadecylamino-D-glucitol] | 90 to 100 | A (10/10-8/10) |  | 
CCCCCCCCCCNC[C@@H](O)[C@@H](O)[C@H](O)[C@H](O)CO [Compound 26] | 90 to 100 | B (7/10-5/10) |  | 
CCCCCCCCCCNC[C@@H](O)[C@@H](O)[C@H](O)[C@H](O)CO [Compound 27] |  | B (7/10-5/10) |  | 
CCCCCCCCCCCCNC[C@@H](O)[C@@H](O)[C@H](O)[C@H](O)CO [Compound 28] | 90 to 100 |  |  | 
CCCCCCCCCCCCNC[C@@H](O)[C@@H](O)[C@H](O)[C@H](O)CO.Cl [Compound 29, 1-deoxy-1-n-dodecylamino-D-mannitol hydrochloride] |  | B (7/10-5/10) | A (100-90) | 
CCCCCCCCCCCCNC[C@@H](O)[C@@H](O)[C@H](O)[C@H](O)CO [Compound 30] |  |  | B (90-70) | 
CCCCCCCCCCCCNC[C@@H](O)[C@@H](O)[C@H](O)[C@H](O)CO [Compound 31] |  |  | A (100-90) | 
CCCCCCCCCCCCNC[C@@H](O)[C@@H](O)[C@H](O)[C@H](O)CO [Compound 32] |  |  | A (100-90) | 
CCCCCCCCCCCCCCNC[C@@H](O)[C@@H](O)[C@H](O)[C@H](O)CO [Compound 33] | 70 to 90 |  |  | 
CCCCCCCCCCCCNC[C@H](O)[C@@H](O)[C@@H](O)[C@H](O)CO [Compound 35] | 70 to 90 |  |  | 
CCCCCCCCCCCCNC[C@H](O)[C@@H](O)[C@@H](O)[C@H](O)CO [Compound 36] |  |  | B (90-70) | 

SMILES | inhibition at 500 ppm [1, 3] [%] | Evaluation (number of plants without the sign of disease per number of plants sprayed) [2] | Evaluation (rate of inhibition of lesion spot formation) [1, 3] | other results
CCCCCCCCCCCCNC[C@H](O)[C@@H](O)[C@@H](O)[C@H](O)CO [Compound 37] |  |  | B (90-70) | 
CCCCCCCCCCCCNC[C@H](O)[C@H](O)[C@@H](O)[C@H](C)O [Compound 38] | 70 to 90 |  |  | 
CCCCCCCCCCCCNCC[C@@H](O)[C@H](O)[C@H](O)CO [Compound 41] | 90 to 100 |  |  | 
CCCCCCCCCCCCNCC[C@@H](O)[C@H](O)[C@H](O)CO [Compound 42] |  |  | B (90-70) | 
CCCCCCCCCCNC[C@H](O)[C@H](O)[C@H](O)CO [Compound 43] | 90 to 100 |  |  | 
CCCCCCCCCCCCNC[C@H](O)[C@H](O)[C@H](O)CO [Compound 44] |  |  | B (90-70) | 
CCCCCCCCCCCCNC[C@H](O)[C@H](O)[C@H](O)CO [Compound 45] | 70 to 90 |  |  | 
CCCCCCCCCCCCNC[C@H](O)[C@H](O)[C@H](O)CO [Compound 46] |  |  | A (100-90) | 
CCCCCCCCCCCCNC[C@H](O)[C@H](O)[C@H](O)CO [Compound 47] |  |  | A (100-90) | 
CCCCCCCCCCCCNC[C@H](O)[C@H](O)[C@H](O)CO [Compound 48] |  | A (10/10-8/10) | A (100-90) | 
CCCCCCCCCCCCCCNC[C@H](O)[C@H](O)[C@H](O)CO [Compound 49] | 90 to 100 | A (10/10-8/10) |  | 
CCCCCCCCCCNC[C@H](O)[C@@H](O)[C@H](O)CO [Compound 50] | 70 to 90 |  |  | 
CCCCCCCCCCNC[C@H](O)[C@@H](O)[C@H](O)CO [Compound 51] |  |  | A (100-90) | 
CCCCCCCCCCCCNC[C@H](O)[C@@H](O)[C@H](O)CO [Compound 52] | 90 to 100 | A (10/10-8/10) |  | 
CCCCCCCCCCCCCCNC[C@H](O)[C@@H](O)[C@H](O)CO [Compound 53] | 90 to 100 | A (10/10-8/10) |  | 
CCCCCCCCCCCCCCNC[C@H](O)[C@@H](O)[C@H](O)CO [Compound 54] |  |  | A (100-90) | 
CCCCCCCCCCCCNCC[C@H](O)[C@H](O)CO [Compound 55] | 90 to 100 | A (10/10-8/10) |  | 
CCCCCCCCCCCCCCCCCCNC[C@H](O)[C@@H](O)[C@H](O[C@H]1O[C@H](CO)[C@@H](O)[C@H](O)[C@H]1O)[C@H](O)CO [Compound 56] | 90 to 100 |  |  | 
CCCCCCCCCCCCCCCCCCNC[C@H](O)[C@@H](O)[C@H](O[C@H]1O[C@H](CO)[C@@H](O)[C@H](O)[C@H]1O)[C@H](O)CO [Compound 57] |  |  | B (90-70) | 
CCCCCCCCCCCCNC[C@H](O)[C@@H](O)[C@H](O[C@@H]1O[C@H](CO)[C@H](O)[C@H](O)[C@H]1O)[C@H](O)CO [Compound 58] | 90 to 100 | B (7/10-5/10) |  | 
CCCCCCCCCCCCCCCCCCNC[C@H](O)[C@@H](O)[C@H](O[C@@H]1O[C@H](CO)[C@H](O)[C@H](O)[C@H]1O)[C@H](O)CO [Compound 59] | 90 to 100 |  |  | 
CCCCCCCCCCCCCCCCCCNC[C@H](O)[C@@H](O)[C@H](O[C@@H]1O[C@H](CO)[C@H](O)[C@H](O)[C@H]1O)[C@H](O)CO [Compound 60] |  |  | B (90-70) | 
CCCCCCCCCCCCNC[C@H](O)[C@@H](O)[C@H](O[C@@H]1O[C@H](CO)[C@@H](O)[C@H](O)[C@H]1O)[C@H](O)CO [Compound 61] | 90 to 100 | B (7/10-5/10) |  | 
CCCCCCCCCCCCCCCCCCNC[C@H](O)[C@@H](O)[C@H](O[C@@H]1O[C@H](CO)[C@@H](O)[C@H](O)[C@H]1O)[C@H](O)CO [Compound 62] | 70 to 90 |  |  | 
CCCCCCCCCCCCCCCCCCNC[C@H](O)[C@@H](O)[C@H](O[C@@H]1O[C@H](CO)[C@@H](O)[C@H](O)[C@H]1O)[C@H](O)CO [Compound 63] |  |  | B (90-70) | 
